Reference: PMC7024175, “In Depth Analysis of Kinase Cross Screening Data to Identify CAMKK2 Inhibitory Scaffolds” (Molecules, 2020)

How the values were obtained:
[1] = system: aryl hydrocarbon receptor; set-up: method as in PMID 18755850; details: cited from earlier work
mice = details: mouse, in vivo; cited from earlier work
[2] = cited from earlier work
casein kinase 2 (CK2) = target: casein kinase 2 (CK2); set-up: method as in earlier work; details: ref 80 (Bain et al.); cited from earlier work
CAMKK2 [3] = target: T1, CAMKK2 (Homo sapiens, UniProt Q96RR4); assay: CAMKK2 enzyme assay (radiometric, CaMKKtide); assay type: biochemical; details: read-out: PoC (activity remaining); for remaining activity at 0.1 µM: 0.1 µM inhibitor; for remaining activity at 1 µM: 1.0 µM inhibitor
T1 construct: made in house
Experimental: CAMKK2 activity was determined by measuring the transfer of radiolabeled phosphate from [γ-^32P]-ATP to a synthetic peptide substrate (CaMKKtide) as previously described [49]. Briefly, purified recombinant CAMKK2 (100 pM) was incubated in assay buffer (50 mM HEPES [pH 7.4], 1 mM DTT, 0.02% [v/v] Brij-35) containing 200 μM CaMKKtide (Genscript), 100 μM CaCl2, 1 μM CaM (Sigma-Aldrich, Castle Hill, NSW, Australia) 200 μM [γ-^32P]-ATP (Perkin Elmer, Boston, MA, USA), 5 mM MgCl2 (Sigma-Aldrich, Castle Hill, NSW, Australia) and various concentrations of inhibitors (0–1 μM) in a standard 30 μl assay for 10 min at 30 °C. Reactions were terminated by spotting 15 μl onto P81 phosphocellulose paper (GE Lifesciences, Paramatta, NSW, Australia) and washing extensively in 1% phosphoric acid (Sigma-Aldrich, Castle Hill, NSW, Australia). Radioactivity was quantified by liquid scintillation counting.

[4] = HLM, mass spectrometry analysis; cited from earlier work
BRD4 = details: cited from earlier work
CAMKK2 [5] = details: activity reported in the literature; cited from earlier work

T1 sequence (Q96RR4 whole entry): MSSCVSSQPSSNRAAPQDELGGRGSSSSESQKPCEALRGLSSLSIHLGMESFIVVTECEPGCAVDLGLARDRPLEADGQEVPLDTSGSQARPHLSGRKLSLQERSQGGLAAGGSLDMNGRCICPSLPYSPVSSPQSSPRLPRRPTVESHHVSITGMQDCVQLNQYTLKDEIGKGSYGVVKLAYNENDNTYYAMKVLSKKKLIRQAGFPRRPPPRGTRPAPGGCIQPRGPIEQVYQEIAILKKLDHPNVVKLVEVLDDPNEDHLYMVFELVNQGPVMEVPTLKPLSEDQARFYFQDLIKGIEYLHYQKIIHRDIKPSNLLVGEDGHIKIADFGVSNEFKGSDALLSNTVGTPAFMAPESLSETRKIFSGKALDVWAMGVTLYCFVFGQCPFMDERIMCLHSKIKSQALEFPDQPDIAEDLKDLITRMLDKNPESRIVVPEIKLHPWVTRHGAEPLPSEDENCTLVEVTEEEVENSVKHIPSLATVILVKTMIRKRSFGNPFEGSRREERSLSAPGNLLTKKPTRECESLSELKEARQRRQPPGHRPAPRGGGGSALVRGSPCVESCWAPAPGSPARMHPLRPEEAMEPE

O=C(O)c1ccc2c3c1cccc3c(=O)n1c3ccccc3nc21 [STO 609, 7-oxo-7H-benzimidazo[2,1-a]benz[de]isoquinoline-3-carboxylic acid]
aryl hydrocarbon receptor binding/activation [1]: binds and activates the aryl hydrocarbon receptor | tolerability, hepatic and renal toxicity (mice): well tolerated in mice without significant hepatic or renal toxicity | aqueous solubility [2]: poor aqueous solubility | IC50 (casein kinase 2 (CK2)): 190 nM | remaining activity at 0.01 µM (CAMKK2 [3]; 0.01 µM inhibitor): 63% | remaining activity at 0.1 µM (CAMKK2 [3]): 56% | remaining activity at 1 µM (CAMKK2 [3]): 21% | metabolism on exposure to human liver microsomes [4]: metabolized to three mono-hydroxylated byproducts, principally by CYP1A2

CC[C@@H]1C(=O)N(C)c2cnc(Nc3ccc(C(=O)NC4CCN(C)CC4)cc3OC)nc2N1C1CCCC1 [BI2536]
BRD4 inhibition (BRD4): potent inhibitor of BRD4

O=C(O)c1ccc(-c2c[nH]c3ncc(-c4ccccc4)cc23)cc1C1CCCC1 [GSK650394]
pIC50 CAMKK2 reported in the literature (CAMKK2 [5]): 9.2 | remaining activity at 0.1 µM (CAMKK2 [3]): 4% | remaining activity at 1 µM (CAMKK2 [3]): 3%
